Laboratory results: patent publication US9751919B2, “Antimicrobial compositions comprising a hyaluronic acid binding peptide and a β-lactam antibiotic” (priority 2012, dated 2017)
Values joined by “and” are separate entries in the source; they are usually repeats but may differ in a detail not shown here. Equal values may be shown once. Marks after values point to notes of the source that are not given here.

Key:
E. faecalis = test: Checkerboard assay (FIC index); format: cell-based, Enterococcus faecalis; details: antibiotic combined with PEP35
Protocol: (§1) The checkerboard assays were carried out as described by Eliopoulos and Moellering (Chapter 9) in Antibiotic in Laboratory Medicine, Lorian Ed. 1996 as well as Bonapace et al. Diagnostic Microbiology and Infectious Diseases 2002; 44:363-366 and Bonapace et al. Diagnostic Microbiology and Infectious Diseases 2000; 38:43-50. In brief, checkerboard assays were performed in 96 well microtitre trays using an 8-by-8 well configuration. […] 96-well custom designed microtitre plates contained 100 ul/well of cation adjusted Mueller-Hinton broth (eg. for Enterobacteriaceae) with or without lysed horse blood (2-5% V/V) [eg. for S. pneumoniae] and were inoculated to achieve a final concentration of approximately 5×10^5 CFU/ml and incubated in ambient air for 24 hours prior to reading. Colony counts were performed periodically to confirm inocula. Quality control was performed every two weeks using a variety of ATCC QC organisms including; S. pneumoniae 49619, S. aureus 29213, E. faecalis 29212, E. coli 25922 and P. aeruginosa 27853. For all antimicrobials as well as PEP35, CLSI criteria was used.
(§2) The fractional inhibitory concentration index (FIC index) was used to interpret synergy, antagonism or additivity/indifference. FIC index=FIC of drug A+FIC of drug B where:
(§3) The FIC of drug A and drug B is calculated as follows, FIC drug A=MIC of drug A in combination/MIC of drug A alone and FIC of drug B=MIC of drug B in combination/MIC of drug B alone. Synergy is defined as FIC index ≦0.5, additivity/indifference FIC >0.5-4 and antagonism FIC index >4.
(§4) Antimicrobials used included PEP35, cefazolin, ceftriaxone, vancomycin, linezolid, tigecycline and daptomycin versus Gram-positive cocci and PEP35, gentamicin, levofloxacin, piperacillin/tazobactam, meropenem and colistin (Polymyxin E) versus Gram-negative bacilli. These agents were obtained as laboratory grade powders from their respective manufacturers. Stock solutions were prepared and dilutions made as described by the Clinical Laboratory Standards Institute (2005 CLSI).
(§5) Organisms included Gram-positive cocci (2 strains of each): Methicillin-susceptible Staphylococcus aureus (MSSA), community-associated (CA) and healthcare-associated (HA) methicillin-resistant Staphylococcus aureus (MRSA), vancomycin-intermediate Staphylococcus aureus (VISA), vancomycin-resistant Staphylococcus aureus (VRSA), methicillin-resistant Staphylococcus epidermidis (MRSE), Streptococcus pyogenes, Streptococcus agalactiae, Streptococcus pneumoniae, Enterococcus faecalis, Enterococcus faecium and vancomycin-resistant enterococcus (VRE). Gram-negative bacilli tested (2 strains of each) included: E. coli, Pseudomonas aeruginosa, Klebsiella pneumoniae, K. oxytoca, Enterobacter cloacae, P. mirabilis and Stenotrophomonas maltophilia. MIC testing, following two subcultures from frozen stock were determined by the CLSI 2005 approved broth microdilution method.

S. agalactiae = test: Checkerboard assay (FIC index); format: cell-based, Streptococcus agalactiae; details: antibiotic combined with PEP35
Protocol: as §1, §2, §3, §4, §5

VRSA = test: MIC (CLSI broth dilution), agent alone; format: cell-based, Staphylococcus aureus; set-up: unit not given beside the values
Protocol: VISA (strains 92, 95 and 96), VRSA (strains 105 and 106) and E. coli (strain 69717) isolates were also tested. One MSSA was used as a control. All MICs were assessed using CLSI guidelines. Also assessed was the activity of cefazolin, ceftriazone, meropenem, and a piperacillin/tazobactam combination antibiotic. Minimum inhibitory concentration (MIC) is the lowest concentration of an antimicrobial that will inhibit the visible growth of a microorganism after incubation.
Antimicrobial Susceptibility Testing: A custom designed panel of antimicrobials was created. The panel included: PEP35, penicillin, piperacillin/tazobactam, cefazolin, ceftriaxone, meropenem, clarithromycin, clindamycin, gentamicin, amikacin, vancomycin, ciprofloxacin, levofloxacin, moxifloxacin, linezolid, trimethoprim/sulfamethoxazole and doxycycline. These agents were obtained as laboratory grade powders from their respective manufacturers. Stock solutions were prepared and dilutions made as described by the Clinical Laboratory Standards Institute (2005 CLSI). Following two subcultures from frozen stock the MICs of the antimicrobial agents for the isolates were determined by the CLSI 2005 approved broth macrodilution method. Briefly, test tubes containing doubling antibiotic dilutions (2 ml per tube) of cation adjusted Mueller-Hinton broth (eg. for Enterobacteriaceae) with or without lysed horse blood (2-5% V/V) [eg. for S. pneumoniae] were inoculated to achieve a final concentration of approximately 5×10^5 CFU/ml and incubated in ambient air for 24 hours prior to reading. Colony counts were performed periodically to confirm inocula. Quality control was performed every two weeks using a variety of ATCC QC organisms including; S. aureus 29213, E. faecalis 29212, E. coli 25922 and P. aeruginosa 27853. For all antimicrobials as well as PEP35, CLSI criteria were used.
One MSSA was used as a control. All MICs were assessed using CLSI guidelines.

E. Faecium = test: Checkerboard assay (FIC index); format: cell-based, Enterococcus faecium; details: antibiotic combined with PEP35
Protocol: as §1, §2, §3, §4, §5

VRE = test: Checkerboard assay (FIC index); format: cell-based, Enterococcus faecium; details: antibiotic combined with PEP35
Protocol: as §1, §2, §3, §4, §5

| Compound | Avg ΣFIC (range) (E. faecalis; E. faecalis 70468) | Avg ΣFIC (range) (E. faecalis; E. faecalis 78145) | Avg ΣFIC (range) (S. agalactiae; S. agalactiae 80870 (MHB)) | Avg ΣFIC (range) (S. agalactiae; S. agalactiae 81262 (MHB)) | MIC (VRSA; VRSA 105) | MIC (VRSA; VRSA 105, in µg/mL) | MIC (VRSA; VRSA 106) | MIC (VRSA; VRSA 106, in µg/mL) | Avg ΣFIC (range) (E. Faecium; E. Faecium 78024) | Avg ΣFIC (range) (E. Faecium; E. Faecium 78352) | Avg ΣFIC (range) (VRE; VRE 70769) | Avg ΣFIC (range) (VRE; VRE 77872) | MIC (VRSA; VRSA 106, listed as CEFTRIAXONE) | MIC (VRSA; VRSA 105, listed as VAN, in µg/mL) | MIC (VRSA; VRSA 106, listed as VAN, in µg/mL) |
| --- | --- | --- | --- | --- | --- | --- | --- | --- | --- | --- | --- | --- | --- | --- | --- |
| Cc1nnc(SCC2=C(C(=O)O)N3C(=O)[C@@H](NC(=O)Cn4cnnn4)[C@H]3SC2)s1 [Cefazolin] | 0.94 (0.56-1.25) | 0.93 (0.62-1.06) | 0.92 (0.56-1.25) | 1.10 (1-1.25) | 128/128/128/ | 128 and 256 | 256/256 | 256 and 128 | 1.16 (1.015-1.5) | 1.10 (1-1.25) | >1* | >1* |  |  |  |
| CCCCCCCCCC(=O)N[C@@H](Cc1c[nH]c2ccccc12)C(=O)N[C@H](CC(N)=O)C(=O)N[C@@H](CC(=O)O)C(=O)N[C@@H]1C(=O)NCC(=O)N[C@@H](CCCN)C(=O)N[C@@H](CC(=O)O)C(=O)N[C@H](C)C(=O)N[C@@H](CC(=O)O)C(=O)NCC(=O)N[C@H](CO)C(=O)N[C@@H]([C@H](C)CC(=O)O)C(=O)N[C@@H](CC(=O)c2ccccc2N)C(=O)O[C@@H]1C [Daptomycin, daptomycin] | 1.5 (1-2.25) | 1.39 (1.03-2.25) | 0.83 (0.53-1.12) | 1.69 (1.06-2.5) |  |  |  |  | 1.19 (1.03-1.5) | 1.10 (0.75-1.5) | 0.82 (0.28-1.25) | 1.34 (1.03-1.5) |  |  |  |
| piperacillin/tazobactam |  |  |  |  |  | 64 |  | 64 |  |  |  |  |  |  |  |
| LKQKIKHVVKLKVVVKLRSQLVKRKQN (listed as Mus sp.) [PEP35] |  |  |  |  |  | 128 and 64 | 128 and 128/128/128 |  |  |  |  |  |  |  |  |
| KKKKKLQLQLNLIKKKVQVSVVVVRRH (Reordered human peptide sequence) [Scrambled PEP35] |  |  |  |  |  | 64 |  | 128 |  |  |  |  |  |  |  |
| CC(=O)NC[C@H]1CN(c2ccc(N3CCOCC3)c(F)c2)C(=O)O1 [Linezolid, linezolid] | 0.99 (0.62-1.25) | 0.88 (0.62-1.06) | 1.1 (1.0-1.25) | 0.91 (0.53-1.25) |  |  |  |  | 1.1 (1-1.25) | 0.80 (0.5-1.06) | 1.09 (1-1.25) | 1.19 (1.03-1.5) |  |  |  |
| CN(C)c1cc(NC(=O)CNC(C)(C)C)c(O)c2c1C[C@H]1C[C@H]3[C@H](N(C)C)C(O)=C(C(N)=O)C(=O)[C@@]3(O)C(O)=C1C2=O [Tigecycline, tigecycline] | 0.82 (0.5-1.06) | 0.9 (0.5-1.12) | 1.10 (1.0-1.25) | 1.05 (0.75-1.25) |  |  |  |  | 1.19 (1.03-1.5) | 0.99 (0.75-1.12) | 1.2 (1.03-1.05) | 1.39 (1.03-2.06) |  |  |  |
| CO/N=C(\C(=O)N[C@@H]1C(=O)N2C(C(=O)O)=C(CSc3nc(=O)c(=O)[nH]n3C)CS[C@H]12)c1csc(N)n1 [Ceftriaxone] | 1.1 (1-1.25) | 0.72 (0.53-1.12) | 0.99 (0.53-1.25) | 1.05 (0.75-1.25) | 2048 and 1024/1024 |  | 1024 and 2048/2048 |  | >1* | 0.99 (0.62-1.25) | >1* | >1* | 1024/1024 |  |  |
| C[C@@H](O)[C@H]1C(=O)N2C(C(=O)O)=C(S[C@@H]3CN[C@H](C(=O)N(C)C)C3)[C@H](C)[C@H]12 [Meropenem] |  |  |  |  |  | 32 and 16 | 16 and 16/16 |  |  |  |  |  |  |  |  |
| CN[C@H](CC(C)C)C(=O)N[C@H]1C(=O)N[C@@H](CC(N)=O)C(=O)N[C@H]2C(=O)N[C@H]3C(=O)N[C@H](C(=O)N[C@H](C(=O)O)c4cc(O)cc(O)c4-c4cc3ccc4O)[C@H](O)c3ccc(c(Cl)c3)Oc3cc2cc(c3O[C@@H]2O[C@H](CO)[C@@H](O)[C@H](O)[C@H]2O[C@H]2C[C@](C)(N)[C@H](O)[C@H](C)O2)Oc2ccc(cc2Cl)[C@H]1O [Vancomycin] | 1.1 (1-1.25) | 1.19 (1.03-15) | 1.05 (0.75-1.25) | 1.1 (1.0-1.25) | 512/512/512 |  | 512/512/512 |  | 1.19 (1.03-1.5) | 1.59 (1.06-2.5) | 0.92 (0.506-1.25) | 1.19 (1.03-1.5) |  | 512 | 512 |
